The record followed here is patent US12077483B2, “Modified amine lipids” (Intellia Therapeutics, Inc., priority 2018, dated 2024).

Test [1] relates to rat TTR. The test is described as follows: In vivo editing in rat liver, LNP with Cas9 mRNA and sgRNA G534, NGS. The following applies: Table 11, Sprague Dawley female rats i.v., liver 6-7 days post dose. How it is done:
(§1) In brief, to quantitatively determine the efficiency of editing at the target location in the genome, genomic DNA was isolated and deep sequencing was utilized to identify the presence of insertions and deletions introduced by gene editing.
(§2) PCR primers were designed around the target site (e.g., B2M), and the genomic area of interest was amplified. Additional PCR was performed according to the manufacturer's protocols (Illumina) to add the necessary chemistry for sequencing. The amplicons were sequenced on an Illumina MiSeq instrument. The reads were aligned to the relevant reference genome (e.g., GRCm38) after eliminating those having low quality scores. The resulting files containing the reads were mapped to the reference genome (BAM files), where reads that overlapped the target region of interest were selected and the number of wild type reads versus the number of reads which contain an insertion, substitution, or deletion was calculated.
(§3) The editing percentage (e.g., the “editing efficiency” or “percent editing”) is defined as the total number of sequence reads with insertions or deletions over the total number of sequence reads, including wild type.
To assess lipid efficacy, dose response experiments were performed in vivo. Cas9 mRNA of Example 115 was formulated as LNPs with a gRNA targeting TTR (G00534; SEQ ID NO: 5). These LNPs were formulated, prepared and analyzed as described in Example 115 using a 1:2 w/w ratio of a sgRNA and Cas9 mRNA. Composition analysis for these LNPs are described in Table 10.
For efficacy, Sprague Dawley female rats were dosed i.v. at 0.1 mpk or 0.03 mpk. 6-7 days post dose, rats were euthanized by CO2 asphyxiation. Blood was collected into serum separator tubes. Liver biopsy processed for gDNA and assessed for editing by NGS methods described in Example 115. Results are shown in Table 11 and FIGS. 12A and 12B. For tolerability, Sprague Dawley female rats were dosed at 6 mpk and 24 hours post dose the animals were euthanized by CO2 asphyxiation. Blood was collected into serum separator tubes and sent to an external CRO for quantitation of liver enzymes via a liver enzyme panel.

Test [2] relates to rat TTR. The experiment in a line: Serum TTR levels in rats after LNP delivery. The following applies: Table 11, G534, Sprague Dawley female rats i.v. It is filed as in vivo.
The subject of another test is mouse B2M gene. The test is described as follows: In vivo editing in mouse liver, LNP with Cas9 mRNA and sgRNA G650, NGS. As to conditions: Table 3; guide G650; CD-1 female mice, 0.1 mpk i.v., liver at 6 or 7 days; Exp. 2-7. On the procedure:
(§4) LNPs were prepared using various amine lipids in a 4-component lipid system consisting of an ionizable lipid (e.g. an amine lipid), DSPC, cholesterol and PEG-2k-DMG. In assays for percent liver editing in mice, Cas9 mRNA and chemically modified sgRNA targeting a mouse sequence were formulated in LNPs, at either a 1:1 w/w ratio or a 1:2 w/w ratio.
(§5) The lipid components were dissolved in 100% ethanol with the lipid component molar ratios described below. The chemically modified sgRNA and Cas9 mRNA were combined and dissolved in 25 mM citrate, 100 mM NaCl, pH 5.0, resulting in a concentration of total RNA cargo of approximately 0.45 mg/mL. The LNPs were formulated with an N/P ratio of about 6, with the ratio of chemically modified sgRNA: Cas9 mRNA at either a 1:1 or 1:2 w/w ratio as described below.
(§6) CD-1 female mice, ranging from 6-10 weeks of age were used in each study. Animals were weighed and grouped according to body weight for preparing dosing solutions based on group average weight. LNPs were dosed via the lateral tail vein in a volume of 0.2 mL per animal (approximately 10 mL per kilogram body weight). The animals were periodically observed for adverse effects for at least 24 hours post dose.
(§7) For studies measuring in vivo editing in liver, CD-1 female mice were dosed at 0.1 mpk unless otherwise noted. Animals were euthanized at 6 or 7 days by exsanguinationvia cardiac puncture under isoflourane anesthesia. Liver tissue was collected from each animal for DNA extraction and analysis. Blood was collected into serum separator tubes or into tubes containing buffered sodium citrate for plasma as described herein. Cohorts of mice were measured for editing by Next-Generation Sequencing (NGS).
as §1, §2, §3
(§8) We assessed in vivo editing efficiency for materials delivered with formulations including various amine lipid compounds. Editing was measured using either G282 (SEQ ID No: 1) which targets the mouse TTR gene or G650 (SEQ ID No. 2) which targets the mouse B2M gene. Lipids described above were assessed for efficacy through in vivo editing experiments. LNPs were formulated at a 1:1 w/w ratio of sgRNA to Cas9 mRNA, and at an N/P ratio of about 6. Molar concentrations of lipids in the lipid component of the LNPs are expressed as mol % amine lipid/DSPC/cholesterol/PEG-2k-DMG, e.g. 50/10/38.5/1.5. The final LNPs were characterized to determine the encapsulation efficiency, polydispersity index, and average particle size according to the analytical methods provided above. Analysis of average particle size, polydispersity (PDI), total RNA content and encapsulation efficiency of RNA are shown in Table 2.

In another test the test system is mouse TTR gene. The experiment in a line: In vivo editing in mouse liver, LNP with Cas9 mRNA and sgRNA G282, NGS. The following applies: for Mean % Indel: Table 5. On the procedure: as §4, §5, §6, §7, §1, §2, §3, §8
To assess whether the editing was dose responsive, experiments were performed in vivo at various LNP dose levels. […]

Where [3] appears, read: Table 7, G00282, CD-1 female mice i.v., dose 0.1 mpk, liver.
Setting [4] is: Table 7, G00282, CD-1 female mice i.v., dose 0.3 mpk, liver.
Where [5] appears, read: G00282, CD-1 female mice i.v., dose 0.1 mpk, liver.
Where [6] appears, read: G00282, CD-1 female mice i.v., dose 0.3 mpk, liver.
Where [7] appears, read: Table 3, guide G282, CD-1 female mice, 0.1 mpk i.v., liver at 6 or 7 days, Exp. 1, 8, 9, 10.

On to `CCCCC/C=C\C/C=C\CCCCCCCC(=O)OCC(COC(=O)CCCCCCC/C=C\C/C=C\CCCCC)OC(=O)CCC(CCCCCC)OC(=O)OCCCN1CCCC1` (centres unmarked) [Compound 45, 2-((4-(((3-(pyrrolidin-1-yl)propoxy)carbonyl)oxy)decanoyl)oxy)propane-1,3-diyl (9Z,9′Z,12Z,12′Z)-bis(octadeca-9,12-dienoate)], for which the figures for the “Editing % Editing” value in the test on rat TTR [1] (dose 0.03 mpk) and in the test with rat TTR [1] (dose 0.1 mpk) were 10.76% and 48.16%, respectively. In addition, the “Serum TTR” value worked out at 910.4 µg/mL in the test on rat TTR [2] (dose 0.03 mpk) and 270.7 µg/mL with rat TTR [2] (dose 0.1 mpk). Moreover, the “Serum TTR % TSS” value with rat TTR [2] (dose 0.03 mpk) came out at 110% TSS; with rat TTR [2] (dose 0.1 mpk), 32% TSS.
For the compound `CCCCC/C=C\C/C=C\CCCCCCCC(=O)OCC(COC(=O)CCCCCCC/C=C\C/C=C\CCCCC)OC(=O)CCC(CCCCCCCCCCCC)OC(=O)OCCCN1CCCC1` (centres unmarked) [Compound 5, 2-((4-(((3-(pyrrolidin-1-yl)propoxy)carbonyl)oxy)hexadecanoyl)oxy)propane-1,3-diyl (9Z,9′Z,12Z,12′Z)-bis(octadeca-9,12-dienoate)], the “Editing Mean % Indel” value was found to be 17.5% with mouse B2M gene, 26.1% in the test on mouse TTR gene (setting [3]) and 52.5% in the test on mouse TTR gene (setting [4]). Moreover, the “efficacy for in vivo editing (in words)” value in the test with mouse TTR gene (mouse liver, Examples 116 and 118) is given as “efficacious”.
As to `CCCCC/C=C\C/C=C\CCCCCCCC(=O)OCC(COC(=O)CCCCCCC/C=C\C/C=C\CCCCC)OC(=O)CCC(CCCCCCCC)OC(=O)OCCCN1CCCC1` (centres unmarked) [Compound 36, 2-((4-(((3-(pyrrolidin-1-yl)propoxy)carbonyl)oxy)dodecanoyl)oxy)propane-1,3-diyl (9Z,9′Z,12Z,12′Z)-bis(octadeca-9,12-dienoate)], the “Editing Mean % Indel” value in the test with mouse B2M gene was determined as 30.0%.
Regarding `CCCCC/C=C\C/C=C\CCCCCCCC(=O)OCC(COC(=O)CCCCCCC/C=C\C/C=C\CCCCC)OC(=O)CCC(CCCCCCCCCCCC)OC(=O)NCCN(C)CC` (centres unmarked) [Compound 7, 2-((4-(((2-(ethyl(methyl)amino)ethyl)carbamoyl)oxy)hexadecanoyl)oxy)propane-1,3-diyl (9Z,9′Z,12Z,12′Z)-bis(octadeca-9,12-dienoate)], in the test on mouse B2M gene, the “Editing Mean % Indel” value was 22.6%. The figures for the “Mean % Indel” value in the test with mouse TTR gene (setting [5]) and in the test on mouse TTR gene (setting [6]) were 49.1% and 69.4%, respectively.
As to `CCCCC/C=C\C/C=C\CCCCCCCC(=O)OCC(COC(=O)CCCCCCC/C=C\C/C=C\CCCCC)OC(=O)CCC(CCCCCCCC)OC(=O)NCC1CCCN1C` (centres unmarked) [Compound 35, 2-((4-((((1-methylpyrrolidin-2-yl)methyl)carbamoyl)oxy)dodecanoyl)oxy) propane-1,3-diyl (9Z,9′Z,12Z,12′Z)-bis(octadeca-9,12-dienoate)], the “Editing Mean % Indel” value in the test on mouse B2M gene was determined as 35.5%.
For the compound `CCCCC/C=C\C/C=C\CCCCCCCC(=O)OCC(COC(=O)CCCCCCC/C=C\C/C=C\CCCCC)OC(=O)CCC(CCCCCCCCCCCC)OC(=O)NCC1CCCN1C` (centres unmarked) [Compound 9, 2-((4-((((1-methylpyrrolidin-2-yl)methyl)carbamoyl)oxy)hexadecanoyl)oxy) propane-1,3-diyl (9Z,9′Z,12Z,12′Z)-bis(octadeca-9,12-dienoate)], the “Editing Mean % Indel” value in the test with mouse B2M gene came out at 20.3%; in the test with mouse TTR gene (setting [7]), 44.1%. Besides, the entries for the “Mean % Indel” value with mouse TTR gene (setting [5]) and with mouse TTR gene (setting [6]) were 50.6% and 64.5%, respectively.
In the case of `CCCCC/C=C\C/C=C\CCCCCCCC(=O)OCC(COC(=O)CCCCCCC/C=C\C/C=C\CCCCC)OC(=O)CCC(CCCCCCCCCCCC)OC(=O)OCCCN(C)C` (centres unmarked) [Compound 1, 2-((4-(((3-(dimethylamino)propoxy)carbonyl)oxy)hexadecanoyl)oxy)propane-1,3-diyl (9Z,9′Z,12Z,12′Z)-bis(octadeca-9,12-dienoate)], the “Editing Mean % Indel” value with mouse TTR gene (setting [7]) is 13.1%.
Consider `CCCCC/C=C\C/C=C\CCCCCCCC(=O)OCC(COC(=O)CCCCCCC/C=C\C/C=C\CCCCC)OC(=O)CCC(CCCCCC)OC(=O)NCCN(C)CC` (centres unmarked) [Compound 40, 2-((4-(((2-(ethyl(methyl)amino)ethyl)carbamoyl)oxy)decanoyl)oxy)propane-1,3-diyl (9Z,9′Z,12Z,12′Z)-bis(octadeca-9,12-dienoate)], for which the “Editing Mean % Indel” value in the test on mouse TTR gene (setting [7]) was 44.7%.
In the case of `CCCCC/C=C\C/C=C\CCCCCCCC(=O)OCC(COC(=O)CCC(OCCCCCCCC)OCCCCCCCC)COC(=O)OCCCN(CC)CC` (centres unmarked) [Compound 49, 3-((4,4-bis(octyloxy)butanoyl)oxy)-2-((((3-(diethylamino)propoxy)carbonyl)oxy)methyl)propyl (9Z,12Z)-octadeca-9,12-dienoate, reference compound], the results for the “Editing % Editing” value in the test on rat TTR [1] (dose 0.03 mpk) and in the test on rat TTR [1] (dose 0.1 mpk) were 4.76% and 25.62%, respectively. Besides, the “Mean % Indel” value worked out at 26.8% in the test with mouse TTR gene (setting [5]) and 60.6% in the test on mouse TTR gene (setting [6]). Moreover, the “Editing Mean % Indel” value is reported as 50.0% with mouse TTR gene (setting [3]) and 67.7% with mouse TTR gene (setting [4]). Besides, the “Serum TTR” value in the test with rat TTR [2] (dose 0.03 mpk) was 790.9 µg/mL; with rat TTR [2] (dose 0.1 mpk), 669.5 µg/mL. The “Serum TTR % TSS” value in the test with rat TTR [2] (dose 0.03 mpk) came to 94% TSS; with rat TTR [2] (dose 0.1 mpk), 79% TSS.
As for `CCCCC/C=C\C/C=C\CCCCCCCC(=O)OCC(COC(=O)CCCCCCC/C=C\C/C=C\CCCCC)OC(=O)CCC(CCCCCCCC)OC(=O)NCCN(C)CC` (centres unmarked) [Compound 34, 2-((4-(((2-(ethyl(methyl)amino)ethyl)carbamoyl)oxy)dodecanoyl)oxy)propane-1,3-diyl (9Z,9′Z,12Z,12′Z)-bis(octadeca-9,12-dienoate)], the “Editing Mean % Indel” value in the test on mouse B2M gene is given as 44.8%; in the test on mouse TTR gene (setting [3]) it was 54.9%; in the test with mouse TTR gene (setting [4]) it was 68.3%. The “Editing % Editing” value in the test on rat TTR [1] (dose 0.03 mpk) was determined as 21.22%; in the test with rat TTR [1] (dose 0.1 mpk) it was 53.9%. The “Serum TTR” value in the test with rat TTR [2] (dose 0.03 mpk) stood at 514.2 µg/mL; in the test on rat TTR [2] (dose 0.1 mpk) it was 188.9 µg/mL. For the same compound, the “Serum TTR % TSS” value in the test with rat TTR [2] (dose 0.03 mpk) was determined as 61% TSS; in the test on rat TTR [2] (dose 0.1 mpk) it was 22% TSS.
`CCCCC/C=C\C/C=C\CCCCCCCC(=O)OCC(COC(=O)CCCCCCC/C=C\C/C=C\CCCCC)OC(=O)CCC(CCCCCCCCCC)OC(=O)NCCN(C)CC` (centres unmarked) [Compound 39, 2-((4-(((2-(ethyl(methyl)amino)ethyl)carbamoyl)oxy)tetradecanoyl)oxy)propane-1,3-diyl (9Z,9′Z,12Z,12′Z)-bis(octadeca-9,12-dienoate)]: the “Editing Mean % Indel” value in the test on mouse TTR gene (setting [7]) came out at 36.5%.
